A short description of this series: solvent given as SMILES.

The structures appear in SMILES notation.

Under “in CO”, `CCOC(=O)CCCCCn1c2ccc(Cl)cc2c(=O)c2cc3c(cc21)c(=O)c1cc(Cl)ccc1n3CCCCCC(=O)OCC` showed an emission maximum of 556 nm.

On to `CCN(CC)c1ccc([N+]2=Cc3ccc4c5c(ccc4c3O[B-]2(c2c(F)c(F)c(F)c(F)c2F)c2c(F)c(F)c(F)c(F)c2F)C=[N+](c2ccc(N(CC)CC)cc2)[B-](c2c(F)c(F)c(F)c(F)c2F)(c2c(F)c(F)c(F)c(F)c2F)O5)cc1`, for which the emission maximum is listed as 714 nm (in C1CCOC1), 644 nm (in Cc1ccccc1) and 683 nm (in ClCCl).

With `Nc1ccc(-c2ccc3c(c2)C(=O)c2ccccc2C3=O)cc1`, the emission maximum reads like this: (in CCCCCC) 512 nm; (in CCOCC) 643 nm; (in Cc1ccccc1) 599 nm; (in ClC(Cl)(Cl)Cl) 562 nm; (in ClCCl) 695 nm.

On to `CCOC(=O)CSc1nc2c(c(C#N)c1C#N)CCCCCC2`, for which, for the setting “in c1ccccc1”, the emission maximum stood at 408 nm.

Consider `CN1c2cc3nc4cc(Br)c(Br)cc4nc3cc2N(C)C1(C)C`, for which the emission maximum (in CCO) is reported as 500 nm.

For the molecule `CC1(C)c2ccccc2N(c2ccc(C(=CC#N)c3ccc(N4c5ccccc5C(C)(C)c5ccccc54)cc3)cc2)c2ccccc21`, for the setting “in Cc1ccccc1”, the emission maximum is 519 nm.

As to `C(=C\c1c[nH]cn1)/c1cc[n+]2ccc(/C=C/c3c[nH]cn3)cc2c1`, under “in CO”, the emission maximum stood at 527 nm.

As to `N#CC(C#N)=C(/C=C/c1cc2c3c(c1)CCCN3CCC2)c1ccc2c3c(cccc13)CC2`, the emission maximum reads like this: (in C1CCOC1) 602 nm; (in CC#N) 622 nm; (in CC(C)=O) 619 nm; (in CCOC(C)=O) 600 nm; (in CN(C)C=O) 629 nm; (in CO) 613 nm. For the same molecule, the emission maximum by setting is: (in Cc1ccccc1) 580 nm; (in ClC(Cl)Cl) 599 nm.

In turn, `N#CC(C#N)=Cc1ccc(-c2ccc(N(c3ccccc3)c3ccccc3)cc2)s1` showed an emission maximum (in ClC(Cl)Cl) of 634 nm.

For the setting “in ClCCl”, `Cn1nc(-c2ccccc2)cc1-c1ccccc1` displayed an emission maximum of 338 nm.

For the molecule `O=P1(c2ccccc2)c2cccc3ccc4ccc1n4c23` (stereo not drawn), under “in ClCCl”, the emission maximum was determined as 496 nm.

With `Cc1cc(/N=C/c2cc(S(=O)(=O)[O][Na])ccc2O)c(/N=C/c2cc(S(=O)(=O)[O][Na])ccc2O)cc1C`, where the note is “in O”, the emission maximum is on record as 426 nm.

For the molecule `CCCCCCCCCCCCN1C(=O)c2ccc3c4ccc5c6c(ccc(c7ccc(c2c37)C1=O)c64)C(=O)NC5=O`, the emission maximum (in CN(C)C=O) came out at 535 nm.

Regarding `COc1ccc(C#Cc2c3ccccc3c(C#Cc3ccc(OC)cc3)c3cc4ccccc4cc23)cc1`, the emission maximum (in ClCCl) was 576 nm.

As to `CC1=CC(C)=[N+]2C1=Cc1c3ccccc3c(C#Cc3ccccc3)n1[B-]2(F)F`, the emission maximum was determined as 615 nm (in CCCCCC); 623 nm (in CCCCCCCCO); 618 nm (in CCOC(C)=O); 624 nm (in CN(C)C=O); 629 nm (in ClCCl).

With `CCN(CC)c1ccc(/C=N/c2cc3ccccc3cc2/N=C/c2ccc(N(CC)CC)cc2O)c(O)c1`, the emission maximum amounted to 512 nm (in CC#N), 516 nm (in CN(C)C=O) and 539 nm (in ClCCl).

As for `CCn1c(-c2ccc(-c3ccc4c(c3)C(c3ccccc3)(c3ccccc3)c3ccccc3-4)cc2)c(-c2ccc3ccccc3c2)c(-c2ccc3ccccc3c2)c1-c1ccc(-c2ccc3c(c2)C(c2ccccc2)(c2ccccc2)c2ccccc2-3)cc1`, for the setting “in CCOC(C)=O”, the emission maximum is 441 nm.

The molecule `CCCc1ccc2c(c1)cc1n2B2c3c4c-1cccc4cc1cccc(c31)-c1cc3cc(CCC)ccc3n12` had an emission maximum (in C1CCOC1) of 565 nm.

Regarding `O=S1(=O)c2ccc(-c3ccc(N(c4ccccc4)c4ccccc4)cc3)cc2C2(c3ccccc3-c3ccccc32)c2cc(-c3ccc(N(c4ccccc4)c4ccccc4)cc3)ccc21`, the emission maximum (in CC(C)=O) is listed as 477.11 nm; the emission maximum (in CCCCCC) stood at 398.37 nm; the emission maximum (in CN(C)C=O) is reported as 491.2 nm; the emission maximum (in Cc1ccccc1) turned out to be 425.46 nm; the emission maximum (in ClCCl) turned out to be 465 nm.

Where the note is “in ClC(Cl)Cl”, `CC[Si](C)(C)c1cc2ccc3cccc4ccc(c1C(=O)NC(C)(C)C)c2c34` displayed an emission maximum of 383 nm.

`COc1ccc2c3c(c4ccc(OC)cc4c2c1)C(C)(C)c1cc(-c2ccccc2)ccc1-3` came in with an emission maximum (in C1CCCCC1) of 392 nm.

Where the note is “in C1CCCCC1”, `Cc1ccc(C)c(C)c1` showed an emission maximum of 295.77 nm.

For the molecule `Cc1ccc(-n2c3ccccc3c3cc(C=C(C#N)C#N)ccc32)cc1`, the emission maximum was determined as 454 nm (in C1CCOC1); 516 nm (in CC#N); 502 nm (in CC(C)=O); 474 nm (in CCOC(C)=O); 519 nm (in CO); 524 nm (in CS(C)=O). For the same molecule, the emission maximum runs as follows: (in Cc1ccccc1) 454 nm; (in ClC(Cl)Cl) 478 nm.

The molecule `C(#Cc1ccncc1)C(C#Cc1ccncc1)=Cc1ccc(C=C(C#Cc2ccncc2)C#Cc2ccncc2)cc1` came in with an emission maximum (in ClC(Cl)Cl) of 472 nm.

Regarding `COc1ccc(C#Cc2ccc(C#N)cc2)cc1OC`, the emission maximum was determined as 400 nm (in C1COCCO1); 451 nm (in CC#N); 346 nm (in CCCCCC); 347 nm (in CCCCCCC); 425 nm (in CCCO); 408 nm (in CCOC(C)=O). The emission maximum (in CS(C)=O) was 462 nm, the emission maximum (in ClC(Cl)Cl) was 404 nm and the emission maximum (in ClCCl) is 417 nm.

Regarding `COc1ccccc1C1=[N+]2C(=C(c3ccccc3)c3c4c(c(-c5ccccc5OC)n3[B-]2(F)F)C2CCC4CC2)C2=C1C1CCC2CC1`, the emission maximum (in ClCCl) came to 583 nm.

As for `CCC1=C(C)C2=C(c3c4ccccc4cc4ccccc34)c3c(C)c(CC)c(C)n3[B-](F)(F)[N+]2=C1C`, the emission maximum (in CC#N) turned out to be 537 nm; the emission maximum (in CCCCCC) amounted to 539 nm; the emission maximum (in CCO) was 539 nm; the emission maximum (in CN(C)C=O) is 541 nm; the emission maximum (in Cc1ccccc1) is 544 nm; the emission maximum (in ClCCl) is given as 543 nm.

Molecule `N#Cc1c(N2CCCCC2)cc(-c2ccc(-c3ccccc3)s2)c2c1CCc1ccccc1-2` displayed an emission maximum (in C1CCOC1) of 515 nm.

For the molecule `CCCCc1ccc2ccc3c(CCCC)cc(CCCC)c4ccc1c2c34`, the emission maximum is, setting by setting: (in CCCCCC) 384 nm; (in CO) 384 nm; (in ClCCl) 385 nm.

Under “in ClCCl”, `Cc1c(C(=O)c2c(F)cc(F)cc2F)c2ccc3cccc4c5cccc6ccc1c(c65)c2c34` came in with an emission maximum of 499 nm.

As for `COc1ccc(C2=c3sc(-c4ccc(OC)cc4)cc3=[N+]3C2=Nc2c(-c4ccc(OC)cc4)c4sc(-c5ccc(OC)cc5)cc4n2[B-]3(F)F)cc1`, for the setting “in ClC(Cl)Cl”, the emission maximum turned out to be 814 nm.

Take `CC1(C)c2ccccc2N(c2ccc(-c3ccc4c(c3)C(=O)c3ccc(-c5ccc(N6c7ccccc7C(C)(C)c7ccccc76)cc5)cc3C4=O)cc2)c2ccccc21`: the emission maximum reads like this: (in Cc1ccccc1) 609 nm; (in c1ccc2c(c1)c1ccccc1n2-c1ccc(-c2ccc(-n3c4ccccc4c4ccccc43)cc2)cc1) 564 nm.

For the molecule `COC(=O)c1c(C(=O)OC)c2ccc(C)nn2c1C`, the emission maximum (in CCCCCC) was 449 nm.

`CC1(C)c2ccccc2N(c2ccc3c(c2)c2cc(N4c5ccccc5C(C)(C)c5ccccc54)cc4c5ccccc5n3c42)c2ccccc21`: the emission maximum came out at 427.57 nm (in C1CCCCC1), 481.94 nm (in C1CCOC1) and 449 nm (in Cc1ccccc1).

For `Cc1ccccc1N(c1ccccc1C)c1ccc2ccc3c(N(c4ccccc4C)c4ccccc4C)ccc4ccc1c2c43`, the emission maximum (in Cc1ccccc1) is given as 452 nm.

With `CCCCOC(=O)c1cc(Cl)c2c3c(Cl)cc4c5c(cc(Cl)c(c6c(Oc7ccc(C(=O)OC)cc7)cc(C(=O)OCCCC)c1c26)c53)C(=O)N(c1c(C(C)C)cccc1C(C)C)C4=O`, the emission maximum (in Cc1ccccc1) is reported as 560 nm.

For `CCN(CC)c1ccc2cc(-c3ccc(-c4ccc5c6ccccc6c6c7cc(-c8ccc(-c9cc%10ccc(N(CC)CC)cc%10oc9=O)cc8)ccc7c7ccccc7c6c5c4)cc3)c(=O)oc2c1`, the emission maximum (in ClC(Cl)Cl) came to 482 nm.

Take `CC(C)(C)NC(=O)c1cccc2ccc3c4cc(F)ccc4c4ccc(F)cc4c3c12`: the emission maximum (in ClCCl) was 385 nm.

As for `CC(C)(C)c1ccc(N(c2ccc(C(C)(C)C)cc2)c2ccc(S(=O)(=O)c3ccc(N(c4ccc(C(C)(C)C)cc4)c4ccc(C(C)(C)C)cc4)cc3)cc2)cc1`, the emission maximum was 419 nm (in Cc1ccccc1) and 430 nm (in O=P(c1ccccc1)(c1ccccc1)c1ccccc1Oc1ccccc1P(=O)(c1ccccc1)c1ccccc1).

`C1=C(c2ccccc2)C=C(c2ccccc2)/C1=C/c1ccc(-c2cccs2)s1`: the emission maximum (in C1CCOC1) was 503 nm.

On to `CCCCCCN(CCCCCC)c1ccc(C#Cc2ccc(/C=C/c3ccc(-c4ccc(/C=C/c5ccc(C#Cc6ccc(N(CCCCCC)CCCCCC)cc6)cc5)cc4)cc3)cc2)cc1`, for which the emission maximum (in Cc1ccccc1) was 452 nm.

Under “in C1CCOC1”, `C[P+](c1c2ccccc2cc2ccccc12)(c1c2ccccc2cc2ccccc12)c1c2ccccc2cc2ccccc12` had an emission maximum of 494 nm.

As to `C(#Cc1cc(C#Cc2cccs2)c(C#Cc2cccs2)c(C#Cc2cccs2)c1C#Cc1cccs1)c1cccs1`, the emission maximum (in ClCCl) is on record as 425 nm.

In turn, `c1ccc2c(c1)c1ccccc1c1[nH]c(-c3ccc(-c4nc5c6ccccc6c6ccccc6c5[nH]4)cc3)nc21` returned an emission maximum (in C1CCOC1) of 456 nm; an emission maximum (in CC#N) of 462 nm; an emission maximum (in CCO) of 461 nm; an emission maximum (in CS(C)=O) of 430 nm; an emission maximum (in ClCCl) of 465 nm.

The molecule `c1cc2ccc3sc4ccc5cccc6c(c1)c2c3c4c56` returned an emission maximum (in ClC(Cl)Cl) of 418 nm.

As for `Nc1cc2nc3cc(Cl)c(Cl)cc3nc2cc1N`, the emission maximum (in CCO) stood at 549 nm.

The molecule `CC1(C)C(/C=C/C2=C(Cl)C(=C/C=C3/N(CCCCCC(=O)O)c4ccccc4C3(C)C)/CCC2)=[N+](CCCCCC(=O)O)c2ccccc21` yielded an emission maximum (in CO) of 808 nm.

As for `CN(C)c1ccc(/C=C/c2cc[n+](C)c3ccccc23)cc1`, the emission maximum was 703 nm (in CC#N), 680 nm (in ClCCl) and 698 nm (in O).
